Melting point data for 31 compounds are collected here from patent US6969713B2, “Piperidine and piperazine acetamide derivatives” (AstraZeneca AB, priority 1999, dated 2005).

The melting point is the temperature, or range, at which the solid turns liquid.

SMILES strings stand for the structures.

For the compound `Cc1ccccc1NC(=O)CN1C[C@@H](C)N(S(=O)(=O)c2cccc([N+](=O)[O-])c2)[C@@H](C)C1` [Example 56, cis-N-(2-Methylphenyl)-2-[4-(3-nitrobenzenesulphonyl)-3,5-dimethylpiperazin-1-yl]-acetamide], the melting point was in the range of 163 to 164 °C.
Under `Cc1ccccc1NC(=O)CN1CC2CCC(C1)N2S(=O)(=O)c1cccc2nsnc12` stands 169 to 170 °C; under `Cc1ccccc1NC(=O)CN1C[C@@H](C)N(S(=O)(=O)c2cccc(C#N)c2)[C@@H](C)C1` [Example 55, cis-2-[4-(3-Cyanobenzenesulphonyl)-3,5-dimethylpiperazin-1-yl]-N-(2-methylphenyl)acetamide], 152 to 153 °C; under `Cc1cccc(C)c1NC(=O)CN1CCN(c2ncnc3sccc23)C(C)C1` (racemic) [Example 1, (±)-N-(2,6-Dimethylphenyl)-2-(3-methyl-4-(thieno[2,3-d]pyrimidin-4-yl)piperazin-1-yl)acetamide], 184 to 185 °C.
`COc1ccc(Cl)cc1S(=O)(=O)N1C2CCC1CN(CC(=O)Nc1ccccc1C)C2` yielded a melting point of 180 to 181 °C.
`Cc1ccccc1NC(=O)CN1C[C@@H](C)N(c2ncnc3sccc23)[C@@H](C)C1` [Example 6, cis-2-[3,5-Dimethyl-4-(thieno[2,3-d]pyrimidin-4-yl)piperazin-1-yl]-N-(2-methylphenyl)acetamide]: the melting point was 174 to 175 °C.
Under `CC(=O)Nc1ccc(S(=O)(=O)N2C3CCC2CN(CC(=O)Nc2ccccc2C)C3)cc1` stands 205 to 206 °C; under `Cc1ccccc1NC(=O)CN1C[C@@H](C)N(S(=O)(=O)c2cccc(C(N)=O)c2)[C@@H](C)C1` [Example 63, cis-2-[4-(3-Aminocarbonylbenzenesulphonyl)-3,5-dimethylpiperazin-1-yl]-N-(2-methylphenyl)acetamide], 124 to 125 °C; under `Cc1ccccc1NC(=O)CN1CC2CCC(C1)N2S(=O)(=O)c1cccc2nonc12`, 167 to 168 °C.
With `Cc1ccccc1NC(=O)CN1CC2CCC(C1)N2S(=O)(=O)c1ccccc1Cl`, the melting point was in the range of 170 to 171 °C.
As for `CC(=O)Nc1cccc(S(=O)(=O)N2[C@H](C)CN(CC(=O)Nc3ccccc3C)C[C@@H]2C)c1` [Example 62, cis-2-[4-(3-Acetylaminobenzenesulphonyl)-3,5-dimethylpiperazin-1-yl]-N-(2-methylphenyl)acetamide], the melting point is 236 to 238 °C.
On to `Cc1c(F)cccc1NC(=O)CN1CC2CCC(C1)N2S(=O)(=O)c1ccccc1`, for which the melting point fell in the range of 168 to 169 °C.
`COc1cccc(S(=O)(=O)N2C3CCC2CN(CC(=O)Nc2ccccc2C)C3)c1` showed a melting point of 163 to 165 °C.
In turn, `C[C@@H]1CN(CC(=O)Nc2ccccc2C(F)(F)F)C[C@H](C)N1c1ncnc2sccc12` [Example 12, cis-2-(3,5-Dimethyl-4-(thieno[2,3-d]pyrimidin-4-yl)piperazin-1-yl]-N-(2-trifluoromethylphenyl)acetamide] had a melting point of 154 to 155 °C.
In the case of `C[C@@H]1CN(CC(=O)Nc2nccc3ccccc23)C[C@H](C)N1c1ncnc2sccc12` [Example 14, cis-2-(3,5-Dimethyl-4-(thieno[2,3-d]pyrimidin-4-yl)piperazin-1-yl)-N-(isoquinolin-1-yl)acetamide], the melting point was in the range of 206 to 207 °C.
The compound `Cc1cccnc1NC(=O)CN1C[C@@H](C)N(c2ncnc3sccc23)[C@@H](C)C1` [Example 13, cis-2-(3,5-Dimethyl-4-(thieno[2,3-d]pyrimidin-4-yl)piperazin-1-yl)-N-(3-methylpyridin-2-yl)acetamide] yielded a melting point of 157 to 159 °C.
`Cc1cccc(C)c1NC(=O)CN1C[C@@H](C)N(c2ncnc3sccc23)[C@@H](C)C1` [Example 2, cis-[2-(3,5-Dimethyl-4-(thieno[2,3-d]pyrimidin-4-yl)piperazin-1-yl)]-N-(2,6-dimethylphenyl)acetamide]: the melting point lay within 186 to 189 °C.
Consider `C[C@@H]1CN(CC(=O)Nc2nc3ccccc3n2C)C[C@H](C)N1c1ncnc2sccc12` [Example 49, cis-2-(3,5-Dimethyl-4-(thieno[2,3-d]pyrimidin-4-yl)piperazin-1-yl)-N-(1-methyl-1H-benzoimidazol-2-yl)acetamide], for which the melting point was 200 °C.
With `Cc1ccccc1NC(=O)CN1C[C@@H](C)N(S(=O)(=O)c2cccc(N)c2)[C@@H](C)C1` [Example 57, cis-2-[4-(3-Aminobenzenesulphonyl)-3,5-dimethylpiperazin-1-yl]-N-(2-methylphenyl)acetamide], the melting point is 202 to 203 °C.
Turning to `Cc1ccccc1NC(=O)CN1C[C@@H](C)N(S(=O)(=O)c2cccc(C(=O)NCCN)c2)[C@@H](C)C1` [Example 71, cis-2-[4-(2-Aminoethylaminocarbonylbenzenesulphonyl)-3,5-dimethylpiperazin-1-yl]-N-(2-methylphenyl)acetamide], the melting point fell in the range of 90 to 92 °C.
The compound `Cc1c(CO)cccc1NC(=O)CN1C[C@@H](C)N(c2ncnc3sccc23)[C@@H](C)C1` [Example 4, cis-N-[3-Hydroxymethyl-2-methylphenyl]-2-(3,5-dimethyl-4-(thieno[2,3-d]pyrimidin-4-yl)piperazin-1-yl)acetamide] displayed a melting point of 203 to 204 °C.
To `Cc1ccccc1NC(=O)CN1C[C@@H](C)N(S(=O)(=O)c2cccc(NS(C)(=O)=O)c2)[C@@H](C)C1` [Example 64, cis-2-[4-(3-Methanesulphonylaminobenzenesulphonyl)-3,5-dimethylpiperazin-1-yl]-N-(2-methylphenyl)acetamide] belongs 102 to 103 °C; to `C[C@@H]1CN(CC(=O)Nc2cccc3cnccc23)C[C@H](C)N1c1ncnc2sccc12` [Example 9, cis-2-(3,5-Dimethyl-4-(thieno[2,3-d]pyrimidin-4-yl)piperazin-1-yl)-N-(isoquinolin-5-yl)acetamide], 213 to 216 °C.
With `C[C@@H]1CN(CC(=O)Nc2ccccc2Cl)C[C@H](C)N1c1ncnc2sccc12` [Example 7, cis-N-(2-Chlorophenyl)-2-[3,5-dimethyl-4-(thieno[2,3-d]pyrimidin-4-yl)piperazin-1-yl]acetamide], the melting point was in the range of 206 to 207 °C.
Consider `O=C1Cc2c(cccc2NC(=O)CN2CC3CCC(C2)N3c2ncnc3sccc23)N1`, for which the melting point was 265 °C (dec.).
As for `C[C@@H]1CN(CC(=O)Nc2cccc3ncccc23)C[C@H](C)N1c1ncnc2sccc12` [Example 10], the melting point fell in the range of 194 to 195 °C.
In turn, `Cc1ccc(NS(C)(=O)=O)cc1NC(=O)CN1CC2CCC(C1)N2c1ncnc2scnc12` gave a melting point of 145 to 187 °C.
In turn, `Cc1ccccc1NC(=O)CN1CC2CCC(C1)N2c1ncnc2scc(C)c12` returned a melting point of 199 to 200 °C.
Take `C[C@@H]1CN(CC(=O)Nc2ccccc2Cl)C[C@H](C)N1c1ncnc2c1ncn2C` [Example 8, cis-N-(2-Chlorophenyl)-2-[3,5-dimethyl-4-(9-methyl-9H-purin-6yl)piperazin-1-yl]acetamide]: the melting point was in the range of 221 to 222 °C.
For the compound `Cc1ccccc1NC(=O)CN1CC2CCC(C1)N2S(=O)(=O)c1ccc(Cl)s1`, the melting point was 150 to 152 °C.
As for `Cc1ccccc1NC(=O)CN1CC2CCC(C1)N2S(=O)(=O)c1cccc(C#N)c1`, the melting point was in the range of 166 to 168 °C.
